The test concerns the target T1, AKR1C3 (Homo sapiens, UniProt P42330).
T1 construct: made in house
T1 sequence (P42330 1-323): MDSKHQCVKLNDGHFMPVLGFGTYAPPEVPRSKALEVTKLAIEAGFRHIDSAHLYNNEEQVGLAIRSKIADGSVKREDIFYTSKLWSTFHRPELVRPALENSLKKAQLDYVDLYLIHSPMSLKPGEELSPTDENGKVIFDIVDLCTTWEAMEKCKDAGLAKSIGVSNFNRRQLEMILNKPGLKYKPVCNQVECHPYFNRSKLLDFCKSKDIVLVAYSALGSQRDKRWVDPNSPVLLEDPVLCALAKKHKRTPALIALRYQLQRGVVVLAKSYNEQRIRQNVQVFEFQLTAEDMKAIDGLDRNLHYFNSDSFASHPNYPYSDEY
Description: Inhibition of recombinant AKR1C3, oxidation of 1-acenaphthenol, progress-curve analysis. The class given is biochemical. To be noted: for k+3 / Ki / k+2 / inhibitory effect (in words) / irreversible inhibition (in words): AKR1C3; for k+3: irreversible binding of second inhibitor molecule to E-NADH-I; for fold less efficient inhibition of AKR1C3 compared to AKR1C1: from K3 values; for k+2: irreversible binding of second inhibitor molecule to E-NAD-I. Here is the method: To investigate the effect of ten selected ruthenium compounds, we measured their effect on the time course of oxidation of the artificial substrate 1-acenaphtenol by recombinant enzymes AKR1C1–3. The recombinant enzymes AKR1C1–AKR1C3 were prepared as described previously ([Brozic et al., 2006]). Since the artificial substrate is racemic, the oxidation follows a double exponential pattern as described previously ([Traven et al., 2015]). The in vitro catalytic activity of AKR1C1–3 enzymes was determined spectrophotometrically by monitoring the increase in NADH absorbance at 340 nm (ε(λ340) = 6220 M^−1cm^−1) in the presence of the substrate 1-acenaphthenol. Enzymatic reactions (300 µL) were performed in 100 mm potassium phosphate buffer (pH 9.0), 0.005% (v/v) TritonX-114, 5% (v/v) DMSO, containing 2.3 mm NAD^+ and 1-acenaphthenol at final concentrations of 90, 180, and 250 µM for AKR1C1, AKR1C2, and AKR1C3, respectively. A total of 5 µL of a tested compound in DMSO was added to the reaction mixture. The final concentrations of the tested compounds ranged from 1 to 200 μM, depending on the extent of inhibition (Supplementary Data). The reaction was started by adding 15 µL of AKR1C1, AKR1C2, or AKR1C3 dissolved in 1x PBS (pH 7.3) at final concentrations of 0.11, 0.16, and 1.5 µM, respectively. AKR1C1–3 activity was measured at 37°C for 3 h without shaking using a PowerWave XS microplate reader (Biotek; Winooski, VT, United States). Measurements at seven different concentrations were performed in duplicates or triplicates (Supplementary Figures S2). To mechanistically explain all the obtained progress curves for each ruthenium complex on each enzyme by a common reaction scheme, we extended the originally proposed scheme so that the interaction of the ruthenium complex with apo- and holoenzyme was allowed to be rapid and followed by a slow irreversible association of a second ruthenium complex molecule. However, the affinity of the Ru complexes for the apoenzymes was much lower so this part was excluded from the proposed kinetic model for clarity (Figure 4).
FIGURE 4 Reaction scheme for the oxidation of 1-acenaphtenol by AKR1C1-3 and its inhibition by ruthenium compounds. E represents apoenzyme, E-NAD and E-NADH represent holoenzyme with bound NAD^+ and NADH, respectively. A and B are enantiomers of substrate 1-acenaphtenol. Symbols which include I (ruthenium compound) represent holoenzyme in complex with one or two inhibitor molecules. KNAD, KNADH, and K2-3 are equilibrium constants and k+2–3 are second-order association rate constants for the binding of the second inhibitor molecule to the enzyme. The progress curves for each enzyme in the presence of ruthenium complexes were analyzed by the WEB server ENZO (https://enzo.cmm.ki.si/) designed exactly for such purposes ([Bevc et al., 2011]).

[1] abbreviates: reversible binding to holoenzyme E-NAD, read-out: K2.
[2] abbreviates: reversible binding to holoenzyme E-NADH, read-out: K3.

The values that follow come from PMC9403717, “Ruthenium complexes show potent inhibition of AKR1C1, AKR1C2, and AKR1C3 enzymes and anti-proliferative action against chemoresistant ovarian cancer cell line” (Frontiers in Pharmacology, 2022).

Read-outs that look alike come from different tables or passages of the source.

In the case of `Cc1ccc(C(C)C)cc1.O=C(C=C([O][Ru][Cl])c1ccc(I)cc1)C(F)(F)F` [Compound 1], the “k+3” value was 0.9 M⁻¹ s⁻¹ and the “fold less efficient inhibition of AKR1C3 compared to AKR1C1” value (“fold less efficient inhibition of AKR1C3” for short) came to 7.6 fold. For the same compound, the Ki under setting [1] came to 105 µM. In addition, under setting [2], the Ki was found to be 0.163 µM.
Take `C1N2CN3CN1CP(C2)C3.Cc1ccc(C(C)C)cc1.F[P-](F)(F)(F)(F)F.O=C(C=C([O][Ru+])c1ccc(I)cc1)C(F)(F)F` [Compound 2]: the “k+2” value worked out at 5.3 M⁻¹ s⁻¹. Besides, the Ki under setting [1] was determined as 116 µM.
With `CN(C)c1ccc(C(=CC(=O)C(F)(F)F)[O][Ru][Cl])cc1.Cc1ccc(C(C)C)cc1` [Compound 3, (η^6-p-cymene)chlorido(4,4,4-trifluoro-1-(4-(dimethylamino)phenyl)-1,3-butandionato)ruthenium(II)], the “k+2” value came out at 10.2 M⁻¹ s⁻¹, the “k+3” value turned out to be 1.2 M⁻¹ s⁻¹ and the “fold less efficient inhibition of AKR1C3” value came out at 7.1 fold. Moreover, the Ki under setting [1] worked out at 179 µM. Also, the Ki under setting [2] is 0.306 µM.
Take `Cc1ccc(C(C)C)cc1.O=C(C=C([O][Ru][Cl])c1ccc2c(c1)OCO2)C(F)(F)F` [Compound 5]: the “k+3” value amounted to 0.5 M⁻¹ s⁻¹ and the “fold less efficient inhibition of AKR1C3” value came to 6.3 fold. For the same compound, the Ki under setting [2] worked out at 0.15 µM.
On to `C1N2CN3CN1CP(C2)C3.Cc1ccc(C(C)C)cc1.F[P-](F)(F)(F)(F)F.O=C(C=C([O][Ru+])c1ccc2c(c1)OCO2)C(F)(F)F` [Compound 6], for which the “k+2” value amounted to 90 M⁻¹ s⁻¹. For the same compound, the Ki under setting [1] was determined as 92.7 µM.
As to `Cc1ccc(C(C)C)cc1.[Cl-].[O-]c1c(I)cc(Cl)c2cccnc12.[Ru+2]` [Compound 7], the “inhibitory effect (in words)” value is recorded as “Almost no inhibition”.
On to `Cc1ccc(C(C)C)cc1.O=[N+]([O-])c1ccc([O][Ru][Cl])c2ncccc12` [Compound 9, (η ^6-p-Cymene) (nitroxolinato)chloridoruthenium (II)], for which the “inhibitory effect (in words)” value was “very weak inhibitory effect” and the “irreversible inhibition (in words)” value was “virtually no irreversible inhibition”. The Ki under setting [1] came to 439 µM.
On the same counts, the results for `C1N2CN3CN1CP(C2)C3.Cc1ccc(C(C)C)cc1.F[P-](F)(F)(F)(F)F.O=[N+]([O-])c1ccc([O][Ru+])c2ncccc12` [Compound 10, (η ^6-p-cymene)(nitroxolinato)(pta)ruthenium(II) hexafluorophosphate] are “Almost no inhibition”, “no irreversible inhibition” and 561 µM.
